Source: patent EP3236920B1, “ANTIMICROBIAL PREPARATION COMPRISING BISPYRIDINIUM ALKANES, 1- OR 2-(C1 TO C24 ALKYL) GLYCEROL ETHER AND ALKANE-1,2-DIOLS” (Beiersdorf AG, priority 2014, dated 2016)

Assays:
Propionibakterium acnes [1] = test: Suspension test, antimicrobial efficacy (reduction factor of cell count vs control); assay type: cell-based, P. acnes (DSM 1897); conditions: after 24h at 37°C, anaerobic medium; cfu(Kontrolle)/cfu(Testsubstanz); A: 0,2 µg/ml TPI 2007; B: 250 µg/ml Decan-1,2-diol; C: 250 µg/ml Decan-1,2-diol + 0,2 µg/ml TPI 2007
Description: Die antimikrobielle Wirksamkeit der erfindungsgemäßen dermatologischen und/oder kosmetischen Zubereitung gegen Propionibakterium acnes (P. acnes) wurde zum Vergleich mit verschiedenen Formulierungen untersucht.
Dazu wurde das Bakterium P. acnes (DSM 1897) aus einem nach EN 12353 angelegten Cryoröhrchen auf einer entsprechenden Agarplatte (Cost-Agar) ausgestrichen und bei 37°C 5 Tage unter anaeroben Bedingungen bebrütet.
Eine Impföse der Bakterien wurde zu 10mL anaerobem Medium gegeben und im Impedanzgerät mit dem Programm PR37NT unter anaeroben Bedingungen inkubiert. Anschließend wurde diese Bakteriensuspension auf eine OD (optische Dichte) von 0,3-0,5 eingestellt. Die eingestellte Bakteriensuspension wurde dann 1:10 mit anaerobem Medium verdünnt, um eine Keimzahl von ungefähr 5*10^6 zu gewährleisten. Diese Bakteriensuspension wurde anschließend für den Test eingesetzt.
Der Suspensionstest wurde per Hand durchgeführt. Hierzu wurden 500µL der zu testenden Wirkstofflösungen bzw. im Falle der Kontrollen 500 µl anaerobem Medium in Mikroreaktionsgefäßen vorgelegt. Anschließend wurden 500 µl der Bakteriensuspension hinzugegeben und gemischt. Zum Zeitpunkt t0 wurde eine Probe aus den Kontrollen entnommen. Die Mikroreaktionsgefäße wurden nun im Thermoschüttler bei 37 °C inkubiert. […]

Propionibakterium acnes [2] = conditions: 0,2% Decan-1,2-diol alone; cited from earlier work

Q: With `CCCCCCCCC(O)CO` (centres unmarked) [Probe B, Decan-1,2-diol] as the compound, how does the Reduktionsfaktor (Propionibakterium acnes [1]) read?
A: 1

Q: What about the “antibakterielle Wirkung im Suspensionstest” value (Propionibakterium acnes [2]) of the same compound?
A: so gut wie keine antibakterielle Wirkung
